In data set [1] the test system is Mus musculus. Briefly: Tested for antiinflammatory activity in the mouse active Arthus (MAA) test by intraperitoneal administration. It is filed as functional. The note with it: ip, read-out: ID50 (the source's name).
For data set [2], the system named is Mus musculus. In words: Tested for antiinflammatory activity in the mouse active Arthus (MAA) test by peroral administration. It counts as functional. To be noted: for ED50: po, read-out: ID50 (the source's name).
The subject of data set [3] is Rattus norvegicus. In words: Biological activity against carrageenan-induced edema. It counts as functional. The note with it: read-out: ID50 (the source's name). (In general: The carrageenan paw model is a standard test of acute inflammation.)
The subject of data set [4] is Rattus norvegicus. Briefly: Biological activity against adjuvant-induced arthritis at the dose of 37.5 mg/kg (p.o.); 18/7. It counts as functional. To be noted: route oral.
Data set [5] relates to Rattus norvegicus. Briefly: Biological activity against adjuvant-induced arthritis at the dose of 75 mg/kg (p.o.). It is filed as functional. To be noted: route oral.
Data set [6] concerns Rattus norvegicus. In words: Biological activity against adjuvant-induced arthritis at the dose of 75 mg/kg (p.o.); 27/26. It is filed as functional. To be noted: route oral.
Data set [7] relates to Rattus norvegicus. In words: Biological activity against adjuvant-induced arthritis at the dose of 150 mg/kg (p.o.). It is filed as functional. The note with it: route oral.
In data set [8] the test system is Rattus norvegicus. In words: Biological activity against adjuvant-induced arthritis at the dose of 150 mg/kg (p.o.); 21/73. It is filed as functional. The note with it: route oral.
Data set [9] has as its system Rattus norvegicus. In words: Biological activity against adjuvant-induced arthritis at the dose of 37.5 mg/kg (p.o.). It is filed as functional. To be noted: route oral.
A short description of data set [10]: Therapeutic index (LD50/ID50, MAA) value of the compound. To be noted: read-out: TI.
Data set [11] in a line: Lethal dose required to produce acute toxicity in mice(ip). It is filed as organism-based. To be noted: mouse, in vivo.
Data set [12] can be described thus: Lethal dose required to produce acute toxicity in mice(po). It is filed as organism-based. The note with it: mouse, in vivo.
Data set [13] has as its system Rattus norvegicus. In words: Biological activity against adjuvant-induced arthritis at the dose of 60 mg/kg (p.o.). It is filed as functional. To be noted: route oral.
The subject of data set [14] is Rattus norvegicus. In words: Biological activity against adjuvant-induced arthritis at the dose of 120 mg/kg (p.o.). It is filed as functional. To be noted: route oral.
Data set [15] has as its system Rattus norvegicus. Briefly: Biological activity against adjuvant-induced arthritis at the dose of 120 mg/kg (p.o.); 65/57. It counts as functional. To be noted: route oral.
Data set [16] deals with Rattus norvegicus. Briefly: Biological activity against adjuvant-induced arthritis at the dose of 30 mg/kg (p.o.). It counts as functional. To be noted: route oral.
For data set [17], the species on record is Rattus norvegicus. In words: animal or person. The note with it: po, read-out: Inhibition.
Description: Biological activity against adjuvant-induced arthritis at the dose of 60 mg/kg (p.o.); 56/61
For data set [18], the species on record is Rattus norvegicus. In words: animal or person. To be noted: po, read-out: Inhibition. The source holds these as a separate data set.
Description: Biological activity against adjuvant-induced arthritis at the dose of 30 mg/kg (p.o.); 30/30

A word on the LD50: it is the dose expected to kill half of the subjects tested.

Turning to `CC(=O)n1nc(-c2ccc(Cl)cc2)nc1C`, the results for the ED50 in the data set with Mus musculus [1], in the data set with Mus musculus [2] and in the data set on Rattus norvegicus [3] were 37 mg/kg, 342 mg/kg and greater than 150 mg/kg, respectively. The molecule further yielded an ID40 in the data set on Mus musculus [2] of 175 mg/kg. Besides, the inhibition in vivo at 37.5 mg/kg is 18% with Rattus norvegicus [4] and 90% in the data set on Rattus norvegicus [9]. The inhibition in vivo at 75 mg/kg in the data set with Rattus norvegicus [5] stood at 90%; in the data set on Rattus norvegicus [6], 27%. The inhibition in vivo at 150 mg/kg was 90% in the data set with Rattus norvegicus [7] and 21% in the data set with Rattus norvegicus [8]. Further, in data set [10], the selectivity ratio is greater than 9.35. Moreover, the 50% lethal dose (LD50) in data set [11] is 600 mg/kg; in [12], greater than 3200 mg/kg.

On to `Cc1nnc(C)n1/N=C(\N)c1ccc(C(F)(F)F)cc1`, for which the ED50 in the data set with Mus musculus [2] is greater than 600 mg/kg.

Regarding `CCc1nnc(CC)n1N`, the ED50 in the data set on Mus musculus [2] is greater than 600 mg/kg.

For `Cc1nc(-c2ccc(Cl)cc2)nn1C(=O)c1ccccc1`, the ED50 with Mus musculus [2] was greater than 600 mg/kg.

Consider `Cc1ccc(C(=N)Nn2c(C)nnc2C)cc1`, for which the ED50 in the data set with Mus musculus [2] was greater than 600 mg/kg.

Take `CC(=O)n1nc(-c2ccc(C)cc2)nc1C`: the ED50 in the data set on Mus musculus [2] is greater than 600 mg/kg.

As to `Cc1nnc(C)n1/N=C(\N)c1ccccc1`, the ED50 in the data set on Mus musculus [2] was greater than 600 mg/kg.

For `CC(=O)n1nc(-c2ccc(C(F)(F)F)cc2)nc1C`, in the data set with Mus musculus [2], the ED50 amounted to 411 mg/kg.

Take `CCC(=O)n1nc(-c2ccc(Cl)cc2)nc1C`: the ED50 in the data set with Mus musculus [2] was determined as 408 mg/kg.

`CCc1nnc(CC)n1/N=C(\N)c1ccc(Cl)cc1`: the ED50 in the data set on Mus musculus [2] was greater than 600 mg/kg.

Regarding `CCc1nc(-c2ccc(Cl)cc2)nn1C(C)=O`, the ED50 in the data set with Mus musculus [2] amounted to 543 mg/kg.

In the case of `CC(=O)n1nc(-c2ccccc2)nc1C`, the ED50 in the data set on Mus musculus [2] was determined as 439 mg/kg.

As to `CC(C)Cc1ccc(C(C)C(=O)O)cc1` (configuration not stated) [IBUPROFEN], the ED50 was greater than 150 mg/kg in the data set with Mus musculus [1], greater than 600 mg/kg in the data set with Mus musculus [2] and 70 mg/kg in the data set on Rattus norvegicus [3]. In addition, the ID40 in the data set with Mus musculus [2] was determined as 386 mg/kg. Besides, the inhibition in vivo at 60 mg/kg amounted to 100% in the data set with Rattus norvegicus [13] and 56% in the data set filed under Rattus norvegicus [17]. For the same molecule, the inhibition in vivo at 120 mg/kg in the data set with Rattus norvegicus [14] was determined as 100%; in the data set on Rattus norvegicus [15], 65%. Besides, the figures for the inhibition in vivo at 30 mg/kg in the data set on Rattus norvegicus [16] and in the data set listed under Rattus norvegicus [18] were 100% and 30%, respectively. Also, in [10], the selectivity ratio was less than 2.15. For the same molecule, the median lethal dose (LD50) in data set [11] amounted to 490 mg/kg; in [12], 1650 mg/kg.
